Read-outs that look alike come from different tables or passages of the source.
Legend:
HDAC5 nuclear export = HDAC5 nuclear export assay in neonatal rat ventricular myocytes (GFP-HDAC5, PGF2α stimulated); format: cell-based; details: Ventricular myocyte, 2 h
Method: Compounds are evaluated in the HDAC5 nuclear […] assay, a 384-well plate-based assay that enables high throughput screening (HTS) to identify small molecules that block agonist-dependent nuclear export of HDAC5. This assay employs the Cellomics High Content Imaging platform (Giuliano & Taylor 1998) and adenovirus encoding green fluorescent protein (GFP) tagged HDAC5. Neonatal rat ventricular myocytes (NRVMs) are infected with GFP-HDAC5 encoding virus and plated on gelatin-coated 384-well dishes. Cells are exposed to compound and stimulated with an prostaglandin (PGF2α), which is a potent stimulus for HDAC5 nuclear export. Following two hours of stimulation, cells are fixed and GFP-HDAC5 localization quantified using the Cellomics system, which provides a read-out of relative fluorescence intensity in the cytoplasmic versus nuclear compartment.

protein kinase D1 (PKD1) = target: T1, protein kinase D1 (PKD1) (Homo sapiens, UniProt Q15139); assay: PKD1 TR-FRET (LANCE) kinase assay; format: biochemical; details: full length wild-type enzyme, 20 μM ATP; read-out: Inhibitory Activity PKD1
T1 construct: This assay is performed with full length wild-type enzyme that is expressed and purified from Sf9 insect cells; made in house; host or cells: Sf9 insect cells
T1 sequence (Q15139 1-912): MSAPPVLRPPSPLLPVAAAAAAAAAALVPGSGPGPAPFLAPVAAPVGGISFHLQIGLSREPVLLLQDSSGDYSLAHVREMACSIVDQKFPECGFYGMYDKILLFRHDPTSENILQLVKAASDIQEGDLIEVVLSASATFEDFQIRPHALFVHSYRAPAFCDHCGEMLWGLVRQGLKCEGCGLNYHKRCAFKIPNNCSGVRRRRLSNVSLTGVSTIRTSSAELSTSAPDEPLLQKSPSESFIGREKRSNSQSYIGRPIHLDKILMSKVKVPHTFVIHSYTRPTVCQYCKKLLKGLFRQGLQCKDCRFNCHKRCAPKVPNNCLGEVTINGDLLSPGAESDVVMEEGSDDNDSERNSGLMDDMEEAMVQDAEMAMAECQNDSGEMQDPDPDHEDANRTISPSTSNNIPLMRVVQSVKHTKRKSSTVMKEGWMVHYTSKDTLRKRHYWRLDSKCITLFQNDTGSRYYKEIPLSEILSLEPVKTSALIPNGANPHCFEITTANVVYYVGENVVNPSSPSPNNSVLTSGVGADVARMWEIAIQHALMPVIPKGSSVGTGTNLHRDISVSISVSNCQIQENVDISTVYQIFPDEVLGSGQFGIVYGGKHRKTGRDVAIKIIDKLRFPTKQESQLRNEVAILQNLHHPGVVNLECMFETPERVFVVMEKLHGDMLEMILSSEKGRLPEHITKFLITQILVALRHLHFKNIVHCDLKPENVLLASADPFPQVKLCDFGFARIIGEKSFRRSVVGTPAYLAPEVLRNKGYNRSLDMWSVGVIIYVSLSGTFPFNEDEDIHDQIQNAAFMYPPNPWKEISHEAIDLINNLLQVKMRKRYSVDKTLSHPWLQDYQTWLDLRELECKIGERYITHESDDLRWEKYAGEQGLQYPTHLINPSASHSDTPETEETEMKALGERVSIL
Source text: The assay to measure protein kinase D1 (PKD1) activity is a time-resolved fluorescence resonance transfer (TR-FRET) assay using PerkinElmer's LANCE™ technology. In this case, a biotinylated syntide-2 peptide is used as the substrate in this reaction. Phosphorylation of the syntide-2 substrate is detected by a specific antibody that recognizes the phosphorylated peptide. A second fluorophore, APC, is conjugated to streptavidin that binds the biotinylated syntide-2 peptide. For detection, the europium fluorophore can be excited by 340 nM light which then emits at 615 nM. Therefore, when the europium labeled secondary antibody binds on the phosphorylated peptide, it is brought into close contact with the APC and excites this fluorophore. The APC emission is at 665 nm and the 665 nM:615 nM ratio is a readout of PKD1 activity.
This assay is performed with full length wild-type enzyme that is expressed and purified from Sf9 insect cells. The reaction buffer consists of 35 mM Tris-HCl pH7.5, 5 mM MgCl2, 0.02% Tween-20, 20 μM ATP, 1 mM DTT and 0.2 μg/mL PKD1 enzyme. The enzyme reaction is initiated by the addition of 2 μM syntide-2 peptide substrate and the reaction carried out for 50 minutes at room temperature. The reaction is stopped by a stop/detection buffer consisting of 50 mM EDTA, 0.18 mg/mL rabbit polyclonal anti-phospho syntide-2 antibody, 0.5 nM europium labeled anti-rabbit IgG and 10 nM streptavidin conjugated APC. After a one hour incubation with the stop/detection buffer, the reaction is read on an Envision 2100 Reader using a LANCE™ Eu/APC dual protocol. As described above, a 665 nM:615 nM ratio is determined to measure substrate phosphorylation and enzyme activity. Compounds are typically tested in an 11 point dose response fashion in triplicate for each concentration used. IC50 values are calculated using an Activity Base (IDBS) software program.

[1] = NRVMs, GFP-HDAC5, PGF2α stimulation two hours, read-out: Inhibitory Activity HDAC
[2] = read-out: Inhibitory Activity HDAC (nM)

| Structure (SMILES) | IC50 (HDAC5 nuclear export; [1]) | IC50 (protein kinase D1 (PKD1)) | IC50 (HDAC5 nuclear export; [2]) |
| --- | --- | --- | --- |
| COCCNc1cc(-c2cc3cnccc3c(N3CCNCC3)n2)ccn1 [Example 21, (2-Methoxyethyl)-[4-(1-piperazin-1-yl-[2,6]naphthyridin-3-yl)-pyridin-2-yl]amine] | 371 nM | 0.014 µM | – |
| COc1cccc(Nc2cc(-c3cc4cnccc4c(NCCO)n3)ccn2)c1 [Example 7] | 86 nM | 0.055 µM | – |
| c1cc2c(NC3CCCNC3)nc(-c3ccnc(NC4CCCCC4)c3)cc2cn1 (centres unmarked) [Example 15, [3-(2-Cyclohexylaminopyridin-4-yl)-[2,6]naphthyridin-1-yl]piperidin-3-ylamine] | – | 0.014 µM | 605 nM |
| CN(C)CC1CCN(c2nc(-c3ccnc(NC4CCCCC4)c3)cc3cnccc23)CC1 [Example 12, Cyclohexyl-{4-[1-(4-dimethylaminomethylpiperidin-1-yl)-[2,6]naphthyridin-3-yl]pyridin-2-yl}amine] | – | 0.207 µM | – |
| O=C(NCCO)C1CCN(c2nc(-c3ccnc(NC4CCOCC4)c3)cc3cnccc23)CC1 [Example 16, 1-{3-[2-(Tetrahydropyran-4-ylamino)pyridin-4-yl]-[2,6]naphthyridin-1-yl}piperidine-4-carboxylic acid (2-hydroxyethyl)amide] | 60 nM | 0.002 µM | – |
| OCCNc1nc(-c2ccnc(NC3CCCCC3)c2)cc2cnccc12 [Example 5, 2-[3-(2-Cyclohexylaminopyridin-4-yl)-[2,6]naphthyridin-1-ylamino]ethanol] | – | 0.382 µM | – |
| CC(C)Nc1cc(-c2cc3cnccc3c(NCCO)n2)ccn1 [Example 6, 2-[3-(2-Isopropylaminopyridin-4-yl)-[2,6]naphthyridin-1-ylamino]ethanol] | – | 0.156 µM | – |
| CC(=O)N1CCN(c2nc(-c3ccnc(NC4CCCCC4)c3)cc3cnccc23)CC1 [Example 11, 1-{4-[3-(2-Cyclohexylaminopyridin-4-yl)-[2,6]naphthyridin-1-yl]piperazin-1-yl}ethanone] | – | 0.186 µM | – |
| O=C(NC1CC1)C1CCN(c2nc(-c3ccnc(NC4CCOCC4)c3)cc3cnccc23)CC1 [Example 17, 1-{3-[2-(Tetrahydropyran-4-ylamino)pyridin-4-yl]-[2,6]naphthyridin-1-yl}piperidine-4-carboxylic acid cyclopropylamide] | – | 0.002 µM | 88 nM |
| CN(C)CCNc1nc(-c2ccnc(Nc3ccccc3)c2)cc2cnccc12 [Example 9, N,N-Dimethyl-N′-[3-(2-phenylaminopyridin-4-yl)-[2,6]naphthyridin-1-yl]-ethane-1,2-diamine] | 756 nM | 0.041 µM | – |
| NC(=O)C1CCN(c2nc(-c3ccnc(NC4CCCCC4)c3)cc3cnccc23)CC1 [Example 10, 1-[3-(2-Cyclohexylaminopyridin-4-yl)-[2,6]naphthyridin-1-yl]piperidine-4-carboxylic acid amide] | 203 nM | 0.083 µM | – |
| CCNC(=O)N1CCN(c2nc(-c3ccnc(Nc4ccn(C)n4)c3)cc3cnccc23)CC1 [Example 18, 4-{3-[2-(1-Methyl-1H-pyrazol-3-ylamino)pyridin-4-yl]-[2,6]naphthyridin-1-yl}piperazine-1-carboxylic acid ethylamide] | – | 0.02 µM | 534 nM |
| Cn1ccc(Nc2cc(-c3cc4cnccc4c(N4CCC5(CCNC5=O)CC4)n3)ccn2)n1 [Example 20, 8-{3-[2-(1-Methyl-1H-pyrazol-3-ylamino)pyridin-4-yl]-[2,6]naphthyridin-1-yl}-2,8-diaza-spiro[4.5]decan-1-one] | 361 nM | 0.017 µM | – |
| c1cc2c(N3CCNCC3)nc(-c3ccnc(NC4CCCCC4)c3)cc2cn1 [Example 3, Cyclohexyl-[4-(1-piperazin-1-yl-[2,6]naphthyridin-3-yl)pyridin-2-yl]amine] | 32 nM | 0.0006 µM | – |
| c1ccc(Nc2cc(-c3cc4cnccc4c(N4CCNCC4)n3)ccn2)cc1 [Example 4, Phenyl-[4-(1-piperazin-1-yl-[2,6]naphthyridin-3-yl)pyridin-2-yl]amine] | – | 0.011 µM | 2 nM |
| Cn1ccc(Nc2cc(-c3cc4cnccc4c(N4CCC(C(N)=O)CC4)n3)ccn2)n1 [Example 19, 1-{3-[2-(1-Methyl-1H-pyrazol-3-ylamino)pyridin-4-yl]-[2,6]naphthyridin-1-yl}piperidine-4-carboxylic acid amide] | 12 nM | 0.0004 µM | – |
| c1cc2c(NC3CCNC3)nc(-c3ccnc(NC4CCCCC4)c3)cc2cn1 (centres unmarked) [Example 14, [3-(2-Cyclohexylaminopyridin-4-yl)-[2,6]naphthyridin-1-yl]pyrrolidin-3-ylamine] | 36 nM | 0.001 µM | – |
| CNc1cc(-c2cc3cnccc3c(NC)n2)ccn1 [Example 2, 1-Methylamino-3-(2-methylaminopyridin-4-yl)-[2,6]-naphthyridine] | – | 0.833 µM | – |
| CN1CCN(c2nc(-c3ccnc(NC4CCCCC4)c3)cc3cnccc23)CC1 [Example 13, Cyclohexyl-{4-[1-(4-methylpiperazin-1-yl)-[2,6]naphthyridin-3-yl]pyridin-2-yl}amine] | – | 0.002 µM | 206 nM |
| CNc1cc(-c2cc3cnccc3c(NCCCO)n2)ccn1 [Example 1] | – | 0.377 µM | – |
| CN(C)CCNc1nc(-c2ccnc(NC3CCCCC3)c2)cc2cnccc12 [Example 8, N-[3-(2-Cyclohexylaminopyridin-4-yl)-[2,6]naphthyridin-1-yl]-N′,N′-dimethylethane-1,2-diamine] | – | 0.055 µM | – |

— US20120142685A1, “ORGANIC COMPOUNDS” (priority 2007, published 2012)
